According to publication PMC8633584, “Patient mutations in human ATP:cob(I)alamin adenosyltransferase differentially affect its catalytic versus chaperone functions” (The Journal of Biological Chemistry, 2021):
Numbering of substitutions follows the chain as printed. Where “and” joins values, the source holds several entries; their conditions need not be identical. Identical values can stand only once.

Key:
R190C ATR [1] = molecular target: T1, R190C ATR (Homo sapiens, UniProt Q96EY8, R190C); assay: EPR spectroscopy of cob(II)alamin with ATR and ATP; type: binding; parameters: The expression construct for recombinant human full-length and ΔN18 ATR in a pET-28b vector; His-tag (thrombin-cleavable) (N, cleaved yes); made in house; host or cells: E. coli BL21 (DE3); settings: R190C ATR 500 μM trimer, cob(II)alamin 300 μM, 5 mM ATP, 100 K
T1 sequence (Q96EY8 38-250 R190C limits assumed): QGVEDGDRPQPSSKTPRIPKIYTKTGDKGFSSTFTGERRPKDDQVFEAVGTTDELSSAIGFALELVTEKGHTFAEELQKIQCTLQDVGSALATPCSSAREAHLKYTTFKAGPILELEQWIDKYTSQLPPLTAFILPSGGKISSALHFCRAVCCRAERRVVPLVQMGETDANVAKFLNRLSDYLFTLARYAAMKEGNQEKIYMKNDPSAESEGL
Description: (§1) EPR spectra were recorded on a Bruker EMX 300 equipped with a Bruker 4201 cavity and a Varian liquid nitrogen cryostat. The temperature was controlled by an Oxford Instruments ITC4 temperature controller. The samples were prepared inside an anaerobic chamber (O2 < 0.3 ppm) and contained 300 μM cob(II)alamin, 5 mM ATP and WT ATR (200 μM trimer) or 500 μM (trimer) E193K, R190C or R190H ATR in 50 mM Hepes pH 7.5, 150 mM KCl, 2 mM MgCl2, 2 mM TCEP, and 10% glycerol. The following instrument settings were employed: microwave frequency, 9.27 GHz; power, 2.0 mW; modulation amplitude, 1.0 mT; modulation frequency, 100 kHz; temperature, 100 K. Five scans were acquired for each sample. A buffer spectrum was subtracted from the sample spectrum. The EPR simulations were performed using the EasySpin program ([36]).

WT ATR = molecular target: T2, WT ATR (Homo sapiens, UniProt Q96EY8); assay: Cob(II)alamin binding to ATR, UV-visible titration; parameters: The expression construct for recombinant human full-length and ΔN18 ATR in a pET-28b vector; His-tag (thrombin-cleavable) (N, cleaved yes); made in house; host or cells: E. coli BL21 (DE3); settings: 1 mM ATP, anaerobic, buffer A
T2 sequence (Q96EY8 38-250 limits assumed): T1 sequence (Q96EY8 38-250 R190C limits assumed) with C153R
Description: (§2) Cob(II)alamin binding to ATR was determined by the titrations performed in the anaerobic chamber (<0.2 ppm O2 levels). The increasing concentrations of WT or mutant ATR were added to 30 μM cob(II)alamin and 1 mM ATP in buffer A. The concentration of bound cob(II)alamin was determined using Δε474nm = 5.1 cm^−1 mM^−1. The change in absorbance at 464 nm, corresponding to the base-off ATR-bound cob(II)alamin was plotted against ATR concentration, and the data were analyzed using Equation 1, as described above.

R190C ATR [2] = molecular target: T1, R190C ATR; assay: Cob(II)alamin binding to ATR, UV-visible titration; parameters: The expression construct for recombinant human full-length and ΔN18 ATR in a pET-28b vector; His-tag (thrombin-cleavable) (N, cleaved yes); made in house; host or cells: E. coli BL21 (DE3); settings: 1 mM ATP, anaerobic, buffer A
Description: as §2

R190H ATR [3] = molecular target: T3, R190H ATR (Homo sapiens, UniProt Q96EY8, R190H); assay: EPR spectroscopy of cob(II)alamin with ATR and ATP; type: binding; settings: R190H ATR 500 μM trimer, cob(II)alamin 300 μM, 5 mM ATP, 100 K
T3 construct: The expression construct for recombinant human full-length and ΔN18 ATR in a pET-28b vector; His-tag (thrombin-cleavable) (N, cleaved yes); made in house; host or cells: E. coli BL21 (DE3)
T3 sequence (Q96EY8 38-250 R190H limits assumed): T1 sequence (Q96EY8 38-250 R190C limits assumed) with C153H
Description: as §1

E193K ATR [4] = molecular target: T4, E193K ATR (Homo sapiens, UniProt Q96EY8, E193K); assay: Cob(II)alamin binding, separation of unbound ligand with 10 kDa cut-off filter; parameters: WT and the R190C variants of ΔN18-ATR and full-length E193K ATR were purified; His-tag (thrombin-cleavable) (N, cleaved yes); made in house; host or cells: E. coli BL21 (DE3)
T4 sequence (Q96EY8 38-250 E193K limits assumed): T1 sequence (Q96EY8 38-250 R190C limits assumed) with C153R, E156K
Description: Although we were unable to determine the KM for cob(II)alamin because of technical limitations of the steady-state assay, the KD for this substrate was determined. In the presence of ATP, cob(II)alamin binds to ATR in a four-coordinate base-off conformation ([17]), which is signaled by a blue shift in the absorption maximum from 474 to 464 nm and an increase in absorption intensity (Fig. 2C). […] In contrast, spectral changes in cob(II)alamin were not observed with E193K ATR (Fig. 2D), indicating either greatly weakened affinity or the presence of bound five-coordinate cob(II)alamin. […] Although some cob(II)alamin (18 μM) was present in the filtrate, the remainder was bound to ATR (Fig. 2D).

E193K ATR [5] = molecular target: T4, E193K ATR; assay: EPR spectroscopy of cob(II)alamin with ATR and ATP; type: binding; parameters: WT and the R190C variants of ΔN18-ATR and full-length E193K ATR were purified; His-tag (thrombin-cleavable) (N, cleaved yes); made in house; host or cells: E. coli BL21 (DE3); settings: E193K ATR 500 μM trimer, cob(II)alamin 300 μM, 5 mM ATP, 100 K
Description: as §1

R190H ATR [6] = molecular target: T3, R190H ATR; assay: Cob(II)alamin binding to ATR, UV-visible titration; settings: 1 mM ATP, anaerobic, buffer A
Description: as §2

Compound: C/C1=C2/[N-][C@H]([C@H](CC(N)=O)[C@@]2(C)CCC(=O)NC[C@@H](C)OP(=O)([O-])O[C@H]2[C@@H](O)[C@@H](n3cnc4cc(C)c(C)cc43)O[C@@H]2CO)[C@]2(C)N=C(/C(C)=C3N=C(/C=C4N=C1[C@@H](CCC(N)=O)C\4(C)C)[C@@H](CCC(N)=O)[C@]\3(C)CC(N)=O)[C@@H](CCC(N)=O)[C@]2(C)CC(N)=O.[Co+2] [cob(II)alamin]
- four-coordinate base-off cob(II)alamin, share of EPR spectrum (R190C ATR [1]): 75%
- unbound five-coordinate base-on cob(II)alamin, share of EPR spectrum (R190C ATR [1]): 25%
- Kd (WT ATR): 0.08 ± 0.01 µM
- Kd (R190C ATR [2]): 46 ± 10 µM
- four-coordinate base-off cob(II)alamin, share of EPR spectrum (R190H ATR [3]): 75%
- unbound five-coordinate base-on cob(II)alamin, share of EPR spectrum (R190H ATR [3]): 25%
- cob(II)alamin in the filtrate (unbound) (E193K ATR [4]; E193K ATR 1.5 mM): 18%
- cob(II)alamin present in the filtrate (unbound) (E193K ATR [4]; cob(II)alamin 100 μM, E193K ATR 500 μM trimer, ATP 2 mM): 18 µM
- five-coordinate base-off cob(II)alamin, share of EPR spectrum (E193K ATR [5]): 76% and ~80%
- free base-on cob(II)alamin, share of EPR spectrum (E193K ATR [5]): 24% and 20%
- Kd (R190H ATR [6]): 38.5 ± 16.5 µM
